In data set [1] the test system is H460 human lung adenocarcinoma xenografts. Briefly: H460 xenograft growth in athymic mice. Type of data set: in vivo, BALB/c athymic mice.
Data set [2] deals with LLC xenografts. Briefly: intratumoral F2,6BP. As to conditions: 120 mg/kg by gavage daily, 10 days. Type of data set: in vivo, C57BL/6 mice. On the procedure:
Cells or tissues were prepared as previously described and F2,6BP content measured using a coupled enzyme reaction following a modification of the method of Van Schaftingen et al (VAN SCHAFTINGEN E et al. “A kinetic study of pyrophosphate:fructose-6-phosphate phosphotransferase from potato tubers. Application to a microassay of fructose 2,6-bisphosphate” Eur J Biochem (1982) Vol. 129, No. 1, pp. 191-195) and normalized to total cellular protein measured by the bicinchoninic acid assay (BCA, Thermo Scientific). For example, H460 cells were exposed to the indicated concentrations of MPN-2. In order to measure F2,6BP, cells were harvested, washed with PBS, lysed in NaOH/Tris acetate by heating at 80° C. and lysates neutralized to pH 7.2. F2,6BP content was measured using a coupled enzyme reaction following a modified method of Van Schaftingen et al (VAN SCHAFTINGEN E et al. “A kinetic study of pyrophosphate:fructose-6-phosphate phosphotransferase from potato tubers. Application to a microassay of fructose 2,6-bisphosphate” Eur J Biochem (1982) Vol. 129, No. 1, pp. 191-195). The F2,6BP concentration was normalized to total cellular protein measured by the bicinchoninic acid assay (BCA, Thermo Scientific). All data are expressed as the mean±SD of three experiments. Statistical significance was assessed by the two-sample t test (independent variable). […]

The subject of data set [3] is LLC xenografts. Briefly: Ki67 immunohistochemistry of tumors. Type of data set: in vivo, C57BL/6 mice. As to conditions: 120 mg/kg by gavage daily, ten days. How it is done:
Formalin-fixed, paraffin-embedded tissue sections were processed as previously described then incubated with anti-Ki-67 primary antibody (Abcam) overnight, followed by HRP-linked goat anti-rabbit secondary antibody (1:300, Pierce). Sections were developed with 3,3′-diaminobenzidine tetrahydrochloride, counterstained, scanned and analyzed with the positive pixel count algorithm as previously described. Data are depicted as % positive pixels/total pixels±SD.

The subject of data set [4] is PFKFB4-/- lung fibroblasts. The experiment in a line: cell counts of tamoxifen-inducible PFKFB4-/- fibroblasts. As to conditions: 4HT-induced deletion, 10 μM 5MPN, 24 hours. Type of data set: cell-based, mouse. An excerpt: (§1) H460, H1299, H441, H522 and A549 non-small cell lung cancer (NSCLC), MDA-MB-231 (breast), LNCaP (prostatic) and HCT116 (colon) adenocarcinoma and Lewis lung carcinoma (LLC) cell lines were obtained from ATCC and used within 6 months of acquisition. PFKFB4^−/− ear pinna fibroblasts isolated from TamCre/loxP/PFKFB4^−/− mice were immortalized as described previously (Chesney J et al. Fructose-2,6-bisphosphate synthesis by 6-phosphofructo-2-kinase/fructose-2,6-bisphosphatase 4 (PFKFB4) is required for the glycolytic response to hypoxia and tumor growth. Oncotarget 2014 Aug. 30; 5(16):6670-86). Normal bronchial epithelial cells (NHBE) were obtained from Lonza and NHBE cells expressing telomerase, SV40 large T antigen and activated Ras (hT/LT/Ras) were a gift from Dr. B. J. Rollins, Dana Farber Cancer Institute. All cell lines were tested and found negative for mycoplasma (PCR Mycoplasma Detection Kit, ABM). Cell lines were grown in DMEM (A549, LNCaP, MDA-MB-231, LLC and PFKFB4^−/−), RPMI 1640 (H460, H1299, H441, H522) and McCoy's 5A media (HCT116) (all from Invitrogen) containing 10% fetal calf serum (Hyclone). […]
(§2) Cells were incubated in 20% trypan blue (Sigma) for 5 minutes. Cells excluding trypan blue were counted using a standard hemocytometer (Hausser Scientific) to determine total numbers of viable cells. Data are expressed as mean±SD of three experiments.

Another data set has as its system MDA-MB-231. The experiment in a line: proliferation, viable cell count. As to conditions: MDA-MB-231, over 48 hours. The format is cell-based, human.
From the text: H460, H1299, H441, H522 and A549 non-small cell lung cancer (NSCLC), MDA-MB-231 (breast), LNCaP (prostatic) and HCT116 (colon) adenocarcinoma and Lewis lung carcinoma (LLC) cell lines were obtained from ATCC and used within 6 months of acquisition. PFKFB4^−/− ear pinna fibroblasts isolated from TamCre/loxP/PFKFB4^−/− mice were immortalized as described previously (Chesney J et al. Fructose-2,6-bisphosphate synthesis by 6-phosphofructo-2-kinase/fructose-2,6-bisphosphatase 4 (PFKFB4) is required for the glycolytic response to hypoxia and tumor growth. Oncotarget 2014 Aug. 30; 5(16):6670-86). Normal bronchial epithelial cells (NHBE) were obtained from Lonza and NHBE cells expressing telomerase, SV40 large T antigen and activated Ras (hT/LT/Ras) were a gift from Dr. B. J. Rollins, Dana Farber Cancer Institute. All cell lines were tested and found negative for mycoplasma (PCR Mycoplasma Detection Kit, ABM). Cell lines were grown in DMEM (A549, LNCaP, MDA-MB-231, LLC and PFKFB4^−/−), RPMI 1640 (H460, H1299, H441, H522) and McCoy's 5A media (HCT116) (all from Invitrogen) containing 10% fetal calf serum (Hyclone). NHBE and hT/LT/Ras cells were grown in BEGM containing SingleQuots (Lonza). All lines were cultured at 37° C. in 5% CO2. In certain experiments, 4-hydroxytamoxifen (4HT, Sigma-Aldrich) was added to PFKFB4^−/− fibroblasts at indicated concentrations.
as §2

Another data set concerns hT/LT/Ras cells. Briefly: cell growth of transformed cells, live cell count. The format is cell-based, human. As to conditions: live cells at 48 hours.
From the text: as §1, §2

Another data set deals with PFK-1. Briefly: PFK-1 kinase activity. The format is biochemical. As to conditions: 10 μM.
The target of a further data set is PFKFB3 (Homo sapiens, UniProt Q16875). The experiment in a line: PFKFB3 kinase activity. Type of data set: biochemical. As to conditions: 10 μM.
The test system of another data set is H460 cells. The experiment in a line: proliferation, viable cell count by trypan blue exclusion. The format is cell-based, human. On the procedure: as §2
H460 non-small cell lung cancer cells were plated in 24 well plates and exposed to increasing concentrations of the indicated inhibitors of Formula IV (FBR1-02 corresponds to
DMSO was used as vehicle. After 24, 48 and 72 hours of exposure, cells were detached and viable cells were counted by Trypan blue exclusion (representative counts at 48 hours shown).
Method: H460 cells were plated in 24 well plates and exposed to increasing concentrations of FB4-31 to FB4-36 and 5MPN. DMSO was used as a vehicle. After 24, 48 and 72 hours of exposure, cells were detached, and viable cells were counted by Trypan blue exclusion (representative counts at 72 hours shown).

The test system of a further data set is cancer cells. The experiment in a line: intracellular ATP measurement. As to conditions: increasing concentrations. Type of data set: cell-based. On the procedure: Method: To measure ATP, cells were washed (while still adherent) with cold PBS, lysed with Passive Lysis Buffer (Molecular Probes, Invitrogen) added directly to the plates, and immediately harvested by scraping. The lysates were flash frozen (to −80° C.) and thawed (to 37° C.) once to accomplish complete lysis and then centrifuged to clear the lysates. Intracellular ATP levels were determined using a bioluminescence assay (Molecular Probes), utilizing luciferase and its substrate, D-luciferin and ATP values were calculated using an ATP standard curve. The ATP concentration was normalized to protein concentration that was estimated using the BCA assay.

Data set [5] can be described thus: oral and intravenous pharmacokinetic properties. Type of data set: in vivo. As to conditions: CD-1 mice (N=3).

3 molecules from patent US10774046B2, “Inhibitors for the treatment of cancer and related methods” (UNIVERSITY OF LOUISVILLE RESEARCH FOUNDATION, INC., priority 2017, dated 2020) can be followed below.

PFKFB3, sequence (Q16875 whole entry, species assumed): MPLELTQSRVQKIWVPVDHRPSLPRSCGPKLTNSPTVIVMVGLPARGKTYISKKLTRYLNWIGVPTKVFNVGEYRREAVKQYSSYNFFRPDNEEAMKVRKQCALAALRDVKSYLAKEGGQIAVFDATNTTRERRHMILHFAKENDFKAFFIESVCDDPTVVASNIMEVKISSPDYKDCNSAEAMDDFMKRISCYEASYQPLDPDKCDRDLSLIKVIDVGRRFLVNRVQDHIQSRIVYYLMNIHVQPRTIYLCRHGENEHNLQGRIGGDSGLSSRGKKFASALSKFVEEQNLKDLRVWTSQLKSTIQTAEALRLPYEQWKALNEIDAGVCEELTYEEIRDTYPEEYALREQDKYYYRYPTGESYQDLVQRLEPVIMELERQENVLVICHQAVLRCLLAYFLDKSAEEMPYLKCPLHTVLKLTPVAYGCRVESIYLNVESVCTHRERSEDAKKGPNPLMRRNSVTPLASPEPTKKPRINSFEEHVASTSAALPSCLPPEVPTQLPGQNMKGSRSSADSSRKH

With `COc1cccc2c(NCCCCCO[N+](=O)[O-])ccnc12` [5MPN, 5-[(8-methoxyquinolin-4-yl)amino]pentyl nitrate], in data set [1] (5MPN 120 mg/kg oral daily), the tumor growth result is given as “suppressed the growth”. Further, the body weight result in [1] (H460-bearing athymic mice, 120 mg/kg oral daily) was “without affecting body weight”. Further, the “intratumoral F2,6BP” value in the data set with LLC xenografts [2] is listed as “reduction”. In addition, the Ki67-positive cells result with LLC xenografts [3] was “reduction in Ki67-positive cells”. In addition, the “effect of genomic deletion of Pfkfb4 on anti-proliferative effect” value in data set [4] is recorded as “sensitized”. Besides, the growth result in the data set with MDA-MB-231 was “dose-dependent reduction in growth”; in the data set with H460 cells (H460, over 48 hours), “dose-dependent reduction in growth”. In addition, the “cell growth of transformed cells” value in the data set on hT/LT/Ras cells is listed as “suppressed”. The “inhibition of kinase activity” value in the data set on PFK-1 and against PFKFB3 was “did not inhibit” in each case. Besides, in the data set on H460 cells (H460, 24-72 hours), the cell proliferation entry is on record as “reduction in cell proliferation”. For the same molecule, in the data set on H460 cells (H460 transfected with PFKFB4, 10 μM 5MPN, 24 hours), the “effect of overexpression of PFKFB4 on anti-proliferative effect” value is recorded as “protected”.
Consider `COc1cccc2c(NCCCCCNC(=O)C(F)(F)F)ccnc12` [Formula (VIII), 2,2,2-trifluoro-N-(5-((8-methoxyquinolin-4-yl)amino)pentyl)acetamide], for which the “production of ATP” value in the data set with cancer cells was “dose-dependent decrease”.
“5-[(8-methoxy-2-methylquinolin-1-ium-4-yl)amino]pentyl nitrate [MPN-2]”: in [5], the intravenous bioavailability entry was “exhibits intravenous bioavailability” and the oral bioavailability entry is “has oral bioavailability”.
